Laboratory results reported in patent publication US4355101A, “Phenylmercaptoazole compounds” (Polaroid Corporation, priority 1981, dated 1982).
Like-named read-outs stand apart in the source and are kept apart here. Blank lines part the entries; values can stand above or below the compound they belong to.

Key:
[1] = pKa of substituents on the phenyl ring, measured for unblocked phenylmercaptotetrazole compounds; type: physicochemical; settings: substituent on phenyl ring of unblocked phenylmercaptotetrazole
Source text: Table I lists the pKa of various substituents on the phenyl ring as measured for unblocked phenylmercaptotetrazole compounds.

[2] = Solubility of the silver salts in the presence of excess amounts of their anions; type: physicochemical; settings: for Solubility of silver salt (total silver): 4×10^-3 molar in silver
Method: The solubilities of the silver salts of PMT and compound VIII in the presence of excess amounts of their anions were measured at pH 7.0 and 13.5. Each solution was 4×10^-3 molar in silver. The results are shown in Table III wherein the solubility data is expressed in μ moles/liter of total silver.

[3] = Solubility product of the silver salt; type: physicochemical; settings: for Effect of pH / ionization on solubility of the silver salt: pH 7 vs pH 13.5
[4] = pH 7; Z.C.H. Tan, Photogr. Sci. Eng. 19, 17 (1975); cited from earlier work
[5] = Molar ratio Compound/Ag 1.25/1, pH 7.0
[6] = Molar ratio Compound/Ag 1.25/1, pH 13.5
[7] = Molar ratio Compound/Ag 1.75/1, pH 7.0
[8] = Molar ratio Compound/Ag 1.75/1, pH 13.5
[9] = Molar ratio Compound/Ag 2.13/1, pH 7.0
[10] = Molar ratio Compound/Ag 2.13/1, pH 13.5
[11] = Molar ratio Compound/Ag 2.5/1, pH 7.0
[12] = Molar ratio Compound/Ag 2.5/1, pH 13.5
[13] = Molar ratio Compound/Ag 4.5/1, pH 7.0
[14] = Molar ratio Compound/Ag 4.5/1, pH 13.5
[15] = Molar ratio Compound/Ag 7.5/1, pH 7.0
[16] = Molar ratio Compound/Ag 7.5/1, pH 13.5

SMILES: O=S(=O)(Nc1ccccc1)c1ccc(-n2nnnc2S)cc1
- pKa [1]: 9.55 ± 0.1

SMILES: Cc1ccc(S(=O)(=O)Nc2ccc(-n3nnnc3S)cc2)cc1
- pKa [1]: 8.8 ± 0.1

SMILES: Oc1ccccc1-n1nnnc1S [(o) OH]
- pKa [1]: 9.5 ± 0.1

SMILES: CS(=O)(=O)Nc1ccc(-n2nnnc2S)cc1 [(p) NHSO2 CH3]
- pKa [1]: 8.65 ± 0.1

SMILES: Oc1ccc(-n2nnnc2S)cc1 [(p) OH, 1-(4-hydroxyphenyl)-5-mercaptotetrazole]
- pKa [1]: 10.1 ± 0.1

Further lines, with some results ahead:

- pKa [1]: 9.95 ± 0.1
SMILES: NS(=O)(=O)c1ccc(-n2nnnc2S)cc1 [(p) SO2 NH2, 1-(4-sulfonamidophenyl)-5-mercaptotetrazole]

- pKa [1]: 11.55 ± 0.1
SMILES: CNS(=O)(=O)c1ccc(-n2nnnc2S)cc1 [(p) SO2 NHCH3]

- Solubility of silver salt (total silver) [2, 5]: < 1 μ moles/liter
- Solubility of silver salt (total silver) [2, 6]: 19 μ moles/liter
- Solubility of silver salt (total silver) [2, 7]: < 1 μ moles/liter
- Solubility of silver salt (total silver) [2, 8]: 44 μ moles/liter
- Solubility of silver salt (total silver) [2, 9]: < 1 μ moles/liter
- Solubility of silver salt (total silver) [2, 10]: 93 μ moles/liter
- Solubility of silver salt (total silver) [2, 11]: 2 μ moles/liter
- Solubility of silver salt (total silver) [2, 12]: 140 μ moles/liter
- Solubility of silver salt (total silver) [2, 13]: 2 μ moles/liter
- Solubility of silver salt (total silver) [2, 14]: 320 μ moles/liter
- Solubility of silver salt (total silver) [2, 15]: 5 μ moles/liter
- Solubility of silver salt (total silver) [2, 16]: 1400 μ moles/liter
- Silver solvent action ([2]; high pH): weak to moderate silver solvent
- Ksp of silver salt ([3]; pH 7): ~ 1 × 10^-16
- Ksp of silver salt ([3]; pH 13.5): 2 × 10^-15
SMILES: CC(=NO)c1ccc(-n2nnnc2S)cc1 [IX]
- Solubility of silver salt compared with PMT ([2]; neutral solution): even less soluble salt in neutral solution than does PMT
- Effect of pH / ionization on solubility of the silver salt [3]: increased the solubility of the silver salt of the compound VIII by an order of magnitude

- Solubility of silver salt (total silver) [2, 5]: < 1 μ moles/liter
- Solubility of silver salt (total silver) [2, 6]: 1 μ moles/liter
- Solubility of silver salt (total silver) [2, 7]: < 1 μ moles/liter
- Solubility of silver salt (total silver) [2, 8]: 2 μ moles/liter
- Solubility of silver salt (total silver) [2, 9]: 1 μ moles/liter
- Solubility of silver salt (total silver) [2, 10]: 4 μ moles/liter
- Solubility of silver salt (total silver) [2, 11]: 3 μ moles/liter
- Solubility of silver salt (total silver) [2, 12]: 8 μ moles/liter
- Solubility of silver salt (total silver) [2, 13]: 15 μ moles/liter
- Solubility of silver salt (total silver) [2, 14]: 18 μ moles/liter
- Solubility of silver salt (total silver) [2, 15]: 58 μ moles/liter
- Solubility of silver salt (total silver) [2, 16]: 63 μ moles/liter
- Effect of pH / ionization on solubility of the silver salt [3]: relatively unaffected by pH
- Ksp of silver salt ([3]; pH 13.5): 4 × 10^-16
SMILES: Sc1nnnn1-c1ccccc1 [PMT, 1-phenyl-5-mercaptotetrazole]
- Ksp of silver salt [4]: ~3 × 10^-16

- pKa [1]: 11.4
SMILES: CC(=NO)c1ccc(-n2nnnc2S)cc1 [drawing 14]
